Measurements reported in patent publication US20040147739A1, “Novel anti-infectives” (priority 2003, published 2004).
pIC50: −log10 of the molar value.

Molecular target: T1, HCV NS5B (Hepatitis C virus genotype 1b, UniProt P26663)
T1 construct: The NS5B protein (591 amino acids, 65 kDa) of HCV
Assay: biochemical
Conditions: not given
Description: The activity of the inventive compounds as inhibitors of HCV activity may be measured by any of the suitable methods known to those skilled in the art, including in vivo and in vitro assays. For example, the HCV NS5B inhibitory activity of the compounds of Formulas I, II and III was determined using standard assay procedures described in Behrens et al., EMBO J. 15:12-22 (1996), Lohmann et al., Virology 249:108-118 (1998) and Ranjith-Kumar et al., J. Virology 75:8615-8623 (2001).
The HCV NS5B inhibitory activity of the compounds of Formulas I, II m and IV was determined using standard procedures well known to those skilled in the art and described in, for example Behrens et al., EMBO J. 15:12-22 (1996), Lohmann et al., Virology 249:108-118 (1998) and Ranjith-Kumar et al., J. Virology 75:8615-8623 (2001).

T1 sequence (P26663 2420-3010): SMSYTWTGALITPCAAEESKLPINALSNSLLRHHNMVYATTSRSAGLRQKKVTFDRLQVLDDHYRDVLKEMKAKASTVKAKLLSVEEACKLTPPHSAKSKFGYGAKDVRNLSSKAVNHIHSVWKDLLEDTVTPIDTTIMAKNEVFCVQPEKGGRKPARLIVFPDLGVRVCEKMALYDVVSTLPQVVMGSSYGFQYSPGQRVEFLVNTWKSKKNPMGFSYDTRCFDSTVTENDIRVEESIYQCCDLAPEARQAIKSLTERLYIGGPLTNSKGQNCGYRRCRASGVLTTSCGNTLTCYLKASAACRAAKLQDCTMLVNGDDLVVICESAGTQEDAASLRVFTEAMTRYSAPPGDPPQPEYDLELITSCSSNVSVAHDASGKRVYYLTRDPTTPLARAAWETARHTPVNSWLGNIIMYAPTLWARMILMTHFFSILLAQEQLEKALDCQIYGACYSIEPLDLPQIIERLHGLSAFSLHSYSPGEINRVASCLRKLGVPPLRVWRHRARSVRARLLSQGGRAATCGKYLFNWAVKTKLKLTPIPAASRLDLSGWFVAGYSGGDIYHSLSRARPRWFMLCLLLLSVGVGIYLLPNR

pIC50	Compound
< 5.00	N#Cc1ccccc1Cn1c(=O)c(C2=Nc3ccccc3S(=O)(=O)N2)c(O)c2ccccc21 [Example 2, 3-(1,1-Dioxo-1,2-dihydrobenzo[1,2,4]thiadiazin-3-yl)-4-hydroxy-1-(2-cyanobenzyl)-1H-quinolin-2-one]

Same assay, conditions: screening rate of 10 uM

Compound	biological activity at the screening rate of 10 uM
NCCCCn1c(=O)c(C2=Nc3ccccc3S(=O)(=O)N2)c(O)c2ccccc21 [Example 200, 1-(4-Aminobutyl)-3-(1,1-dioxo-1,2-dihydrobenzo[1,2,4]thiadiazin-3-yl)-4-hydroxy-1-1H-quinolin-2-one]	did not demonstrate biological activity
CC(C)CCn1c(=O)c(C2=Nc3ccccc3S(=O)(=O)N2)c(O)c2ccc([N+](=O)[O-])cc21 [Example 198, 3-(1,1-Dioxo-1,2-dihydrobenzo[1,2,4]thiadiazin-3-yl)-4-hydroxy-1-(3-methylbutyl)-7-nitro-1H-quinolin-2-one]	did not demonstrate biological activity
CC(C)(C)c1ccc(Cn2c(=O)c(C3=NS(=O)(=O)c4ccccc4N3)c(O)c3ccccc32)cc1 [Example 208, 1-(4-tert-Butylbenzyl)-3-(1,1-dioxo-1,4-dihydro-1-benzo[1,2,4]thiadiazin-3-yl)-4-hydroxy-1H-quinolin-2-one]	did not demonstrate biological activity
CC(C)CCOc1ccc2c(c1)c(O)c(C1=NS(=O)(=O)c3ccccc3N1)c(=O)n2CC(=O)OC(C)(C)C [Example 205, [3-(1,1-Dioxo-1,4-dihydro-1-benzo[1,2,4]thiadiazin-3-yl)-4-hydroxy-6-(3-methyl-butoxy)-2-oxo-2H-quinolin-1-yl]acetic acid tert-butyl ester]	did not demonstrate biological activity

Test system: not given
Assay: not given
Conditions: not given

melting point	Compound
232 to 235 °C	O=c1c(C2=Nc3ccccc3S(=O)(=O)N2)c(O)c2ccccc2n1CC1CCCCC1 [Example 11, 1-Cyclohexylmethyl-3-(1,1-dioxo-1,2-dihydrobenzo[1,2,4]thiadiazin-3-yl)-4-hydroxy-1H-quinolin-2-one]
248.9 to 250 °C	O=c1c(C2=Nc3ccccc3S(=O)(=O)N2)c(O)c2ccccc2n1CCCC(F)(F)F [Example 18, 3-(1, l-Dioxo-1,2-dihydrobenzo[1,2,4]thiadiazin-3-yl)-4-hydroxy-1-(4,4,4-trifluorobutyl)-1H-quinolin-2-one]
249.1 to 251.1 °C	CC(C)=CCn1c(=O)c(C2=Nc3ccccc3S(=O)(=O)N2)c(O)c2ccccc21 [Example 12, 3-(1,1-Dioxo-1,2-dihydrobenzo[1,2,4]thiadiazin-3-yl)-4-hydroxy-1-(3-methylbut-2-eneyl)-1H-quinolin-2-one]
238.4 to 239.6 °C	O=c1c(C2=Nc3ccccc3S(=O)(=O)N2)c(O)c2ccccc2n1CCCCO [Example 20, 3-(1,1-Dioxo-1,2-dihydrobenzo[1,2,4]thiadiazin-3-yl)-4-hydroxy-1-(4-hydroxybutyl)-1H-quinolin-2-one]
234 to 236 °C	O=c1c(C2=NS(=O)(=O)c3cc(I)ccc3N2)c(O)c2ccccc2n1CCC1CC1
190 to 194.5 °C (dec.)	CC(Br)CCn1c(=O)c(C2=Nc3ccccc3S(=O)(=O)N2)c(O)c2ccccc21 (centres unmarked) [Example 10, 1-(3-Bromobutyl)-3-(1,1-dioxo-1,2-dihydrobenzo[1,2,4]thiadiazin-3-yl)-4-hydroxy-1-1H-quinolin-2-one]
